According to patent EP0185020B1, “NI[…] PREPARATION THEREOF AND UTILIZATION THEREOF IN ANTICANCEROUS CHEMIOTHERAPY” (CENTRE NATIONAL DE LA RECHERCHE SCIENTIFIQUE (CNRS), priority 1984, dated 1985):

Key:
[1] = tested on: leucémie L 1210 greffée i.p.; test: Antitumour activity on L1210 leukaemia grafted i.p. in mice, mixtures A1 A2 and B1 B2 (INSERM Unit 71, Example 12); format: in vivo, souris B6D2F1/IFFA CREDO; conditions: J1, J5, J9
Source text: Au jour J: 0, des souris mâles B6D2F1 âgées de trois mois reçoivent par voie intrapéritonéale 10^5 cellules de la souche leucémique L 1210. Les animaux sont répartis en lots de 8 à 10 animaux pour les groupes témoins et de 6 à 8 animaux pour les groupes traités. Aux jours J : 1, J : 5, J : 9, les animaux reçoivent par voie intrapéritonéale ou intraveineuse le traitement à différentes doses. La CNCC est administrée en suspension dans l'huile d'olive. Les produits selon l'invention sont administrés dans du sérum physiologique. La mortalité est enregistrée tous les jours. La médiane de survie des animaux traités et des animaux témoins a été déterminée. Les résultats sont considérés comme positifs lorsque l'index I = [formula] est supérieur à 125.
La valeur ∞ signifie que 50 à 100% des animaux sont survivants au jour J : 90.
L'activité cytostatique sur la leucémie L 1210 des produits selon l'invention a été évaluée chez des souris B6D2F1/IFFA CREDO d'après le protocole précédemment décrit.
Ont été administrés par voie intrapéritonéale (i.p.) soit le mélange A, A2 dans les proportions suivantes A, (70%) et A2 (30%), soit le mélange B, B2 dans les mêmes proportions, soit la CNCC aux doses suivantes: 10 mg/kg, 20 mg/kg, 30 mg/kg, 40 mg/kg et 50 mg/kg. Les résultats sont présentés sur le tableau Il et appellent les commentaires suivants: • - très bonne efficacité du mélange A, A2 aux doses de 20 mg/kg, 30 mg/kg et 40 mg/kg et du mélange B, B2 aux doses de 20 mg/kg, 30 mg/kg, 40 mg/kg et 50 mg/kg. […] De plus, le nombre de survivants à 90 jours est plus grand chez les animaux ayant reçu les produits selon l'invention par rapport aux animaux ayant reçu la CNCC. […]

[2] = Solubility in solvents allowing intravenous administration; format: physicochemical; conditions: solvants autorisant l'administration par voie intraveineuse
Source text: Ont été administrés par voie intraveineuse (i.v.) dans la veine caudale, les mélanges A, A2 et B, B2 dans les proportions et aux doses utilisées dans a). La comparaison avec la CNCC pour cette voie d'administration est impossible en raison de l'insolubilité de ce composé dans les solvants autorisant l'administration par voie intraveineuse. Les résultats sont présentés sur le tableau III.

[3] = tested on: Leucémie L 1210 (greffée par voie i.c.); conditions: Leucémie L 1210 i.c.; 30 mg/kg I.P., jours 1,5,9; cited from earlier work
[4] = tested on: Carcinome pulmonaire de Lewis (implanté en sous-cutané); conditions: 30 mg/kg I.P., jours 1,5,9; cited from earlier work
[5] = tested on: Mélano-carcinome B 16 (implanté en sous-cutané); conditions: Mélano-carcinome B 16 s.c.; 30 mg/kg I.P., jours 1,5,9; cited from earlier work
[6] = tested on: Gliome 26 (implanté en sous-cutané); conditions: Gliome 26 s.c.; 30 mg/kg I.P., jours 1,5,9; cited from earlier work
[7] = tested on: Adénocarcinome mammaire TM2 (implanté en sous-cutané); conditions: 30 mg/kg I.P., jours 1,5,9; cited from earlier work
[8] = tested on: Fibrosarcome I.C.I.G. C1 (implanté en sous-cutané); design: key: N.S.: Non significatif; ∞: 50% en plus des animaux traités sont guéris; conditions: 30 mg/kg I.P., jours 1,5,9; cited from earlier work
[9] = tested on: Carcinome du côlon (côlon 26) (implanté en sous-cutané); conditions: Carcinome du côlon (côlon 26) s.c.; 30 mg/kg I.P., jours 1,5,9; cited from earlier work
[10] = tested on: M 555 ovarienne (implanté en sous-cutané); conditions: M 555 ovarienne s.c.; 30 mg/kg I.P., jours 1,5,9; cited from earlier work

## O=NN(CCCl)C(=O)NCCSSCCNC(=O)N(CCCl)N=O [CNCC]
[1]; 10 mg/kg
  Nombre de survivants à 90 jours: 0/6
  T/C × 100: 250
[1]; 20 mg/kg
  Nombre de survivants à 90 jours: 6/6
  T/C × 100: ∞ (50 à 100% des animaux survivants à 90 jours)
[1]; 30 mg/kg
  Nombre de survivants à 90 jours: 6/6
  T/C × 100: ∞ (50 à 100% des animaux survivants à 90 jours)
[1]; 40 mg/kg
  Nombre de survivants à 90 jours: 3/6
  T/C × 100: ∞ (50 à 100% des animaux survivants à 90 jours)
[1]; 50 mg/kg
  Nombre de survivants à 90 jours: 0/6
  T/C × 100: 125
[2]
  solubilité, in words: insolubilité
[3]
  Augmentation de la durée de survie (I.L.S.: T/C×100): ∞ (50% en plus des animaux traités sont guéris)
[4]
  Augmentation de la durée de survie (I.L.S.: T/C×100): ∞ (50% en plus des animaux traités sont guéris)
[5]
  Augmentation de la durée de survie (I.L.S.: T/C×100): 200
[6]
  Augmentation de la durée de survie (I.L.S.: T/C×100): 200
[7]
  Augmentation de la durée de survie (I.L.S.: T/C×100): 185
[8]
  Augmentation de la durée de survie (I.L.S.: T/C×100): N.S.
[9]
  Augmentation de la durée de survie (I.L.S.: T/C×100): ∞ (50% en plus des animaux traités sont guéris)
[10]
  Augmentation de la durée de survie (I.L.S.: T/C×100): >254
